Experimental data taken from patent US4939122A, “Lipophile derivatives of muramylpeptides having properties of activating macrophages and compositions containing them” (priority 1984, dated 1990).
Several values for one entry are separate records, joined by “and”; a condition that tells them apart may be missing. Equal values may be shown once. Read-outs that look alike come from different tables or passages of the source.

What was measured:
Klebsiella pneumoniae = experiment: Anti-infectious activity in Swiss mice infected i.v. with Klebsiella pneumoniae; format: in vivo; conditions: for protective activity against lethal Klebsiella pneumoniae infection (in words): summary of observations
Experimental: In the Tables VII to XI are indicated the conditions in which the substances were administered and, according to the considered cases, the number of mice surviving 10 or 15 days later and the corresponding percentages of protection with respect to controls.

[1] = Retention of the muramylpeptide in liposomes incubated in MEM-FCS medium at 37° C.; format: physicochemical
Experimental: Liposomes produced under the same conditions, but with muramylpeptides labeled with tritium have enabled the following observations. […] The incorporation of the MDP-GDP and the stability of the latter, has also been verified in reaction tests with anti-MDP monoclonal antibodies. After incubation of these liposomes in the same medium at 37° C. for 72 hours, there is observed a constant agglutination of the liposomes with the antibody (95% of the liposome being agglutinated), this observation bearing witness to the practical absence of any loss of MDP-GDP. […] The leakage, if it was produced, would have been manifested by a decrease in the intensity of agglutination with time.

[2] = Pyrogenicity in rabbits (European Pharmacopoea); format: in vivo, rabbit; conditions: 1 mg/kg; groups of three rabits, individual animals
Text: Certain of the compounds according to the invention show at relatively high doses, a certain pyrogenicity, whose impact is however reduced, taking into account the particularly higher therapeutic index from which they appear to benefit. This being the case, the muramylpeptides in which the group of modification by the two lipophile chains is fixed to the 6 position of the saccharide group, and of which the peptide chain is terminated by a glutamy-alpha-ester-gamma-amide group, are particularly advantageous by reason of their more reduced pyrogenicity. Testimony thereof is borne by comparative pyrogenicity measurements carried out on groups of three rabits with the two compounds more particularly studied, according to the procedure of the European Pharmacopoea, Vol. 2, 1971, pages 58-60. In fact, the following results are obtained, expressed by temperature observations observed in experimental animals to which had previously been administered 1 mg/kg of the compounds studied: for the MDP-GDP : 1°; 0.9° and 1° C.; for the 6 -0-GDP-MDPG-OnBu : 0.2°; 0.3° and 0.5° C.

bovine serumalbumin = experiment: Adjuvant activity in the Swiss female mouse, passive hemagglutination titer; format: in vivo; conditions: for Primary response, passive hemagglutination titer: 100 micrograms with 500 micrograms of bovine serumalbumin at day 0, day 21, serums titrated in pools; for Secondary response, passive hemagglutination titer: booster of antigen alone at day 30, day 36, titrated separately
Experimental: At day 0, 100 micrograms of C474 were injected with 500 micrograms of bovine serumalbumin. At day 30, the animals received a booster of 100 micrograms of antigen alone. The following results were obtained:
The titers are expressed in Log 2 of the passive hemagglutination titer. At day 21, the serums were titrated in pools; at day 36, they were titrated separately.

Candida albicans = experiment: Protection of mice infected by the venous route with Candida albicans; format: in vivo
[3] = tested on: influenza virus suspension APR/8; format: in vivo; conditions: preventive, 0.1 mg per mouse
[4] = Table X, 100 μg i.v. at day -1, 10^4 K. pneumoniae
[5] = Table XI, 2 × 10^6 Candida albicans, muramylpeptide 100 μg/day/4 days i.v. (-4 to -1), amphotericin B 3 μg subcutaneously on the day of infection
[6] = Table XI, 2 × 10^6 Candida albicans, muramylpeptide 100 μg/day/4 days i.v., amphotericin B 3 μg subcutaneously
[7] = Table IX, 5 × 10^4 K. pneumoniae, Gentamicin 10 μg subcutaneously 2 hours after infection, MDP or MDP-GDP 30 μg intravenously 24 hours before
[8] = Table VII, aqueous suspension, 100 μg i.v. at day -1, 10^4 K. pneumoniae

Molecule	Protection (%) (Klebsiella pneumoniae; [4])	Survival (15 d) (Klebsiella pneumoniae; [4])	retention of the muramylpeptide in the liposomes (in words) [1]	protective activity against lethal Klebsiella pneumoniae infection (in words) (Klebsiella pneumoniae)	Survival (10 d) (Candida albicans; [5])	Protection (%) (Klebsiella pneumoniae; [8])	Survival (15 d) (Klebsiella pneumoniae; [8])	other results
6-O-(beta, gamma-dipalmitoyl-L-glycerol)-capryl -N-acetyl-muramyl-L-alanyl-D-glutamine-n-butyl ester [6-0-GDP-aminocaproyl-MDPG-OnBu]	56%	9/16	Quite similar observations					
6-O-(beta, gamma-dipalmitoyl-L-glyceryl)-N-acetyl-muramyl-L-alanyl-D-glutamine-n-buty l-ester [6-0-GDP-MDPG-OnBu]			Quite similar observations	protective activity comparable				temperature observations (pyrogenicity) [2]: 0.2 °C and 0.3 °C and 0.5 °C; Primary response, passive hemagglutination titer (bovine serumalbumin): 2.64 Log 2; Secondary response, passive hemagglutination titer (bovine serumalbumin): 8.6 Log 2
C[C@@H]1[C@H](O)[C@@H](C)/C=C/C=C/C=C/C=C/C=C/C=C/C=C/[C@H](O[C@@H]2O[C@H](C)[C@@H](O)[C@H](N)[C@@H]2O)C[C@@H]2O[C@](O)(C[C@@H](O)C[C@@H](O)[C@H](O)CC[C@@H](O)C[C@@H](O)CC(=O)O[C@H]1C)C[C@H](O)[C@H]2C(=O)O [Amphotericin B, reference compound]					2/16			Protection (Candida albicans; [6]): 13
CCCCCCCCCCCCCCCC(=O)OCC(COC(=O)[C@H](C)NC(=O)CC[C@@H](NC(=O)[C@@H](C)NC(=O)[C@@H](C)O[C@H]1[C@H](O)[C@@H](CO)OC(O)[C@@H]1NC(C)=O)C(N)=O)OC(=O)CCCCCCCCCCCCCCC (stereo partly drawn) [MDP(D,D)-L-Ala-GDP, alpha (N-acetyl-muramyl-D-alanyl-D-isoglutaminyl-L-alanine) beta, gamma-dipalmitoyl-sn-glycerol]	25%	6/16	Quite similar observations	although active, is less so than MDP-L-Ala-GDP				
CCCCCCCCCCCCCCCC(=O)OC[C@@H](COC(=O)CC[C@@H](NC(=O)[C@H](C)NC(=O)[C@@H](C)O[C@H]1[C@H](O)[C@@H](CO)OC(O)[C@@H]1NC(C)=O)C(N)=O)OC(=O)CCCCCCCCCCCCCCC (stereo partly drawn) [MDP-GDP, alpha (N-acetyl-muramyl-L-alanyl-D-isoglutamine), beta, gamma-dipalmitoyl-sn-glycerol]				protective activity comparable	3/16	65%	32/48	Primary response, passive hemagglutination titer (bovine serumalbumin): 3.64 Log 2; Secondary response, passive hemagglutination titer (bovine serumalbumin): 10.27 Log 2; Protection (%) (Klebsiella pneumoniae; [7]): 16%; Survival (15 d) (Klebsiella pneumoniae; [7]): 4/24; protective activity when injected in liposomes (in words) (Klebsiella pneumoniae; in liposomes): the most active; Protection (Candida albicans; [6]): 19; Protection (Candida albicans; Table XII, aqueous suspension IOO μg × 4): 75%; Survival (10 d) (Candida albicans; Table XII, aqueous suspension IOO μg × 4, days -4, -3, -2, and -1, 10^6 Candida albicans): 6/8; activity against Candida (in words) (Candida albicans; in vivo): active; survival ([3]; orally): 56%; survival ([3]; subcutaneously): 44%
CCCCCCCCCCCCCCCC(=O)OCC(COC(=O)[C@H](C)NC(=O)CC[C@@H](NC(=O)[C@H](C)NC(=O)[C@@H](C)O[C@H]1[C@H](O)[C@@H](CO)OC(O)[C@@H]1NC(C)=O)C(N)=O)OC(=O)CCCCCCCCCCCCCCC (stereo partly drawn) [MDP-L-Ala-GDP, alpha (N-acetyl-muramyl-L-alanyl-D-isoglutaminyl-L-alanine), beta, gamma-dipalmitoyl-sn-glycerol]	63%	12/16	Quite similar observations					
CCCCOC(=O)[C@@H](CCC(N)=O)NC(=O)[C@H](C)NC(=O)[C@@H](C)O[C@H]1[C@H](O)[C@@H](CO)OC(O)[C@@H]1NC(C)=O (some centres unmarked) [MDPG-OnBu, reference compound]						62.5%	20/32	
Gentamicin [reference compound]								Protection (%) (Klebsiella pneumoniae; [7]): 21%; Survival (15 d) (Klebsiella pneumoniae; [7]): 5/24
alpha (N-acetyl-muramyl-D-alanyl-D-isoglutamine), beta, gamma-dipalmitoyl-sn-glycerol [MDP(D,D)-GDP]			Quite similar observations	protective activity comparable	0/16	83.3%	20/24	
